Results as given in US11712438B2, “Phenyl derivatives as PGE2 receptor modulators” (IDORSIA PHARMACEUTICALS LTD, priority 2017, dated 2023).

Legend:
Experiment in all cases: cell-based
EP4 = EP4 (Homo sapiens, UniProt P35408);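 further: inhibition of PGE2-evoked (6 nM) cAMP accumulation in BT549 breast cancer cells endogenously expressing EP4, cAMP read by HTRF competitive immunoassay after 30 min at room temperature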
EP2 = EP2 (Homo sapiens, UniProt P43116);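 further: SF295 glioblastoma cells with endogenous EP2 only, PGE2-stimulated cAMP accumulation read by HTRF competitive immunoassay, 45 min pre-incubation then 30 min at room temperature, IBMX in buffer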
Chain of EP2 (P43116 whole entry): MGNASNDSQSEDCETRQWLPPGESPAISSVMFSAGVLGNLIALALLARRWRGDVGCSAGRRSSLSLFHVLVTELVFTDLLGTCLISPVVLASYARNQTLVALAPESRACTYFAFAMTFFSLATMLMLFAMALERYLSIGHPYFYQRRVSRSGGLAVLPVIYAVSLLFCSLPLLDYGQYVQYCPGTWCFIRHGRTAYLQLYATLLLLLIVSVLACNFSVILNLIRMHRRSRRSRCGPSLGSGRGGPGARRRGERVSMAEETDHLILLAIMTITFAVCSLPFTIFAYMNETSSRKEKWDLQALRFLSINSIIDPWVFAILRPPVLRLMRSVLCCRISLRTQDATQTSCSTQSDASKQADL

PTRGER4 (EP4) = PTRGER4 (EP4) (Homo sapiens, UniProt P35408);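 further: assay plate preincubated 15 min at 37 °C, after which PGE2 was added at 20 nM final and incubation continued 120 min at 37 °C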
Chain of PTRGER4 (EP4) (P35408 whole entry): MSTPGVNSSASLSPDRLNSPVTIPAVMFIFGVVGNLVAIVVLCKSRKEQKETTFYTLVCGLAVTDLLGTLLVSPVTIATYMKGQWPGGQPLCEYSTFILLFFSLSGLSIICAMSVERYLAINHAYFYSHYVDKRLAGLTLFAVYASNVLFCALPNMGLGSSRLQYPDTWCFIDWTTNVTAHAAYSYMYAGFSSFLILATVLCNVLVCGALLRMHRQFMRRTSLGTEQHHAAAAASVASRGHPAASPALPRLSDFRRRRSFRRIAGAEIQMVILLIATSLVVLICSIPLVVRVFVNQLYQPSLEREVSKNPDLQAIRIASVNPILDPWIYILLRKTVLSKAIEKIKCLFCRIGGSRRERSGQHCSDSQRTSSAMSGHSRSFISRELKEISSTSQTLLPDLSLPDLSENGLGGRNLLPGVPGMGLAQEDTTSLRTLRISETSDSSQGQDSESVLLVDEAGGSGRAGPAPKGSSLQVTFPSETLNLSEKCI

PTGER2 (EP2) = PTGER2 (EP2) (Homo sapiens, UniProt P43116)
Chain of PTGER2 (EP2) (P43116 whole entry): as the sequence (P43116 whole entry) above

Chain of EP4 (P35408 whole entry): as the sequence (P35408 whole entry) above

Structure (SMILES)	IC50 (EP4)	IC50 (EP2)	IC50 (PTRGER4 (EP4))	IC50 (PTGER2 (EP2))
CCOc1cc(-c2cc(NCCc3ccc(Br)cc3)ncn2)sc1C(=O)O [Example 54, 5-{6-[2-(4-Bromo-phenyl)-ethylamino]-pyrimidin-4-yl}-3-ethoxy-thiophene-2-carboxylic acid]	10 nM	31 nM	17 nM	60 nM
CCOc1cc(-c2cc(NCCc3ccccc3C)ncn2)sc1C(=O)O [Example 55, 3-Ethoxy-5-[6-(2-o-tolyl-ethylamino)-pyrimidin-4-yl]-thiophene-2-carboxylic acid]	396 nM	65 nM	1000 nM	89 nM
CCOc1cc(-c2cc(NCCc3ccccc3F)ncn2)sc1C(=O)O [Example 56, 3-Ethoxy-5-{6-[2-(2-fluoro-phenyl)-ethylamino]-pyrimidin-4-yl}-thiophene-2-carboxylic acid]	775 nM	512 nM	3030 nM	717 nM
CCOc1cc(-c2cc(NCCc3cccc(OC)c3)ncn2)sc1C(=O)O [Example 59, 3-Ethoxy-5-{6-[2-(3-methoxy-phenyl)-ethylamino]-pyrimidin-4-yl}-thiophene-2-carboxylic acid]	51 nM	131 nM	169 nM	359 nM
Cc1ccc(CCNc2cc(-c3cc(C(F)(F)F)c(C(=O)O)s3)ncn2)cc1 [Example 62, 5-[6-(2-p-Tolyl-ethylamino)-pyrimidin-4-yl]-3-trifluoromethyl-thiophene-2-carboxylic acid]	79 nM	176 nM	108 nM	324 nM
Cc1ccc(CCNc2cc(-c3cc(C(F)(F)F)c(C(=O)O)s3)ncn2)c(C)c1 [Example 64, 5-{6-[2-(2,4-Dimethyl-phenyl)-ethylamino]-pyrimidin-4-yl}-3-trifluoromethyl-thiophene-2-carboxylic acid]	38 nM	244 nM	205 nM	316 nM
CCOc1cc(-c2cc(NCCc3ccc(Cl)cc3[N+](=O)[O-])ncn2)sc1C(=O)O [Example 65, 5-{6-[2-(4-Chloro-2-nitro-phenyl)-ethylamino]-pyrimidin-4-yl}-3-ethoxy-thiophene-2-carboxylic acid]	53 nM	102 nM	136 nM	111 nM
CCOc1cc(-c2cc(NCCc3ccc(Cl)cc3Cl)ncn2)sc1C(=O)O [Example 66, 5-{6-[2-(2,4-Dichloro-phenyl)-ethylamino]-pyrimidin-4-yl}-3-ethoxy-thiophene-2-carboxylic acid]	53 nM	27 nM	133 nM	16 nM
CCOc1cc(-c2cc(NCCc3ccc(C)c(C)c3)ncn2)sc1C(=O)O [Example 68, 5-{6-[2-(3,4-Dimethyl-phenyl)-ethylamino]-pyrimidin-4-yl}-3-ethoxy-thiophene-2-carboxylic acid]	25 nM	165 nM	33 nM	145 nM
CCOc1cc(-c2cc(NCCc3cc(Br)ccc3OC)ncn2)sc1C(=O)O [Example 71, 5-{6-[2-(5-Bromo-2-methoxy-phenyl)-ethylamino]-pyrimidin-4-yl}-3-ethoxy-thiophene-2-carboxylic acid]	53 nM	70 nM	100 nM	85 nM
CCOc1cc(-c2cc(NCCc3cc(OC)ccc3OC)ncn2)sc1C(=O)O [Example 72, 5-{6-[2-(2,5-Dimethoxy-phenyl)-ethylamino]-pyrimidin-4-yl}-3-ethoxy-thiophene-2-carboxylic acid]	42 nM	40 nM	104 nM	77 nM
CCOc1cc(-c2cc(NCCc3ccc(OC)cc3OC)ncn2)sc1C(=O)O [Example 73, 5-{6-[2-(2,4-Dimethoxy-phenyl)-ethylamino]-pyrimidin-4-yl}-3-ethoxy-thiophene-2-carboxylic acid]	35 nM	30 nM	136 nM	54 nM
CCOc1cc(-c2cc(NCCc3ccccc3)ncn2)sc1C(=O)O [Example 75, 3-Ethoxy-5-(6-phenethylamino-pyrimidin-4-yl)-thiophene-2-carboxylic acid]	918 nM	568 nM	2180 nM	727 nM
CCOc1cc(-c2cc(NCCc3cccc(C(=O)OC)c3)ncn2)sc1C(=O)O [Example 76, 3-Ethoxy-5-{6-[2-(3-methoxycarbonyl-phenyl)-ethylamino]-pyrimidin-4-yl}-thiophene-2-carboxylic acid]	88 nM	234 nM	310 nM	488 nM
CCOc1cc(-c2cc(NCCc3ccc(Cl)cc3)ncn2)sc1C(=O)O [Example 82, 5-{6-[2-(4-Chloro-phenyl)-ethylamino]-pyrimidin-4-yl}-3-ethoxy-thiophene-2-carboxylic acid]	46 nM	66 nM	103 nM	74 nM

Next, values leading:

IC50 (EP4)	IC50 (EP2)	IC50 (PTRGER4 (EP4))	IC50 (PTGER2 (EP2))	Structure (SMILES)
12 nM	7 nM	6 nM	8 nM	CCOc1cc(Br)ccc1CCNc1cc(-c2cc(OCC)c(-c3noc(=O)[nH]3)s2)ncn1 [Example 85, 3-(5-{6-[2-(4-Bromo-2-ethoxy-phenyl)-ethylamino]-pyrimidin-4-yl}-3-ethoxy-thiophen-2-yl)-[1,2,4]oxadiazol-5(4H)-one]
89 nM	84 nM	30 nM	16 nM	CCOc1cc(-c2cc(NCCc3c(F)cc(Cl)cc3OC)ncn2)sc1-c1noc(=O)[nH]1 [Example 86, 3-(5-{6-[2-(4-Chloro-2-fluoro-6-methoxy-phenyl)-ethylamino]-pyrimidin-4-yl}-3-ethoxy-thiophen-2yl)-[1,2,4]oxadiazol-5(4H)-one]
17 nM	28 nM	5 nM	11 nM	CCOc1cc(-c2cc(NCCc3c(F)cc(Br)cc3OC)ncn2)sc1-c1noc(=O)[nH]1 [Example 87, 3-(5-{6-[2-(4-Bromo-2-fluoro-6-methoxy-phenyl)-ethylamino]-pyrimidin-4-yl}-3-ethoxy-thiophen-2yl)-[1,2,4]oxadiazol-5(4H)-one]
6 nM	31 nM	2 nM	9 nM	CCOc1cc(-c2cc(NCCc3c(OC)cc(Br)cc3OC)ncn2)sc1-c1noc(=O)[nH]1 [Example 88, 3-(5-{6-[2-(4-Bromo-2,6-dimethoxy-phenyl)-ethylamino]-pyrimidin-4-yl}-3-ethoxy-thiophen-2yl)-[1,2,4]oxadiazol-5(4H)-one]
58 nM	10 nM	3 nM	17 nM	CCCOc1cc(Br)ccc1CCNc1cc(-c2cc(OCC)c(-c3noc(=O)[nH]3)s2)ncn1 [Example 89, 3-(5-{6-[2-(4-Bromo-2-propoxy-phenyl)-ethylamino]-pyrimidin-4-yl}-3-ethoxy-thiophen-2yl)-[1,2,4]oxadiazol-5(4H)-one]
10 nM	24 nM	3 nM	26 nM	CCOc1cc(C(F)(F)F)ccc1CCNc1cc(-c2cc(OCC)c(-c3noc(=O)[nH]3)s2)ncn1 [Example 90, 3-(3-Ethoxy-5-{6-[2-(2-ethoxy-4-trifluoromethyl-phenyl)-ethylamino]-pyrimidin-4-yl}-thiophen-2yl)-[1,2,4]oxadiazol-5(4H)-one]
4 nM	68 nM	4 nM	48 nM	CCOc1cc(-c2cc(NCCc3ccc(OC)cc3F)ncn2)sc1-c1noc(=O)[nH]1 [Example 92, 3-(3-Ethoxy-5-{6-[2-(2-fluoro-4-methoxy-phenyl)-ethylamino]-pyrimidin-4-yl}-thiophen-2yl)-[1,2,4]oxadiazol-5(4H)-one]
93 nM	82 nM	90 nM	79 nM	CCOc1cc(-c2cc(NCCc3cc(Cl)ccc3Br)ncn2)sc1-c1noc(=O)[nH]1 [Example 94, 3-(5-{6-[2-(2-Bromo-5-chloro-phenyl)-ethylamino]-pyrimidin-4-yl}-3-ethoxy-thiophen-2-yl)-[1,2,4]oxadiazol-5(4H)-one]
166 nM	15 nM	59 nM	30 nM	CCOc1cc(F)ccc1CCNc1cc(-c2cc(OCC)c(-c3noc(=O)[nH]3)s2)ncn1 [Example 95, 3-(3-Ethoxy-5-{6-[2-(2-ethoxy-4-fluoro-phenyl)-ethylamino]-pyrimidin-4-yl}-thiophen-2-yl)-[1,2,4]oxadiazol-5(4H)-one]
106 nM	58 nM	43 nM	24 nM	CCOc1cc(-c2cc(NCCc3ccc(Cl)cc3C#N)ncn2)sc1-c1noc(=O)[nH]1 [Example 96]
127 nM	144 nM	95 nM	131 nM	CCOc1cc(-c2cc(NCCc3ccc(F)cc3C#N)ncn2)sc1-c1noc(=O)[nH]1 [Example 97]
50 nM	83 nM	14 nM	53 nM	CCOc1cc(-c2cc(NCCc3c(F)ccc(Cl)c3F)ncn2)sc1-c1noc(=O)[nH]1 [Example 98, 3-(5-{6-[2-(3-Chloro-2,6-difluoro-phenyl)-ethylamino]-pyrimidin-4-yl}-3-ethoxy-thiophen-2yl)-[1,2,4]oxadiazol-5(4H)-one]
69 nM	80 nM	45 nM	75 nM	CCOc1cc(-c2cc(NCCc3ccc(OC)cc3CC)ncn2)sc1-c1noc(=O)[nH]1 [Example 99, 3-(3-Ethoxy-5-{6-[2-(2-ethyl-4-methoxy-phenyl)-ethylamino]-pyrimidin-4-yl}-thiophen-2-yl)-[1,2,4]oxadiazol-5(4H)-one]
59 nM	50 nM	27 nM	17 nM	CCOc1cc(-c2cc(NCCc3c(F)ccc(F)c3Cl)ncn2)sc1-c1noc(=O)[nH]1 [Example 100, 3-(5-{6-[2-(2-Chloro-3,6-difluoro-phenyl)-ethylamino]-pyrimidin-4-yl}-3-ethoxy-thiophen-2yl)-[1,2,4]oxadiazol-5(4H)-one]
